From PMC7241567 (Journal of Enzyme Inhibition and Medicinal Chemistry, 2020)
“Also recorded” adds a separate entry of the source.

Assays:
Assay type in all cases: biochemical
FLT3 = molecular target: T1, FLT3 (Homo sapiens, UniProt P36888); test: Reaction Biology Kinase HotSpot radiometric kinase assay; conditions: for IC50: FLT3 wild type, read-out: IC50 against FLT3
T1 construct: purchased Reaction Biology Corp. (Kinase HotSpot service)
T1 sequence (P36888 27-993): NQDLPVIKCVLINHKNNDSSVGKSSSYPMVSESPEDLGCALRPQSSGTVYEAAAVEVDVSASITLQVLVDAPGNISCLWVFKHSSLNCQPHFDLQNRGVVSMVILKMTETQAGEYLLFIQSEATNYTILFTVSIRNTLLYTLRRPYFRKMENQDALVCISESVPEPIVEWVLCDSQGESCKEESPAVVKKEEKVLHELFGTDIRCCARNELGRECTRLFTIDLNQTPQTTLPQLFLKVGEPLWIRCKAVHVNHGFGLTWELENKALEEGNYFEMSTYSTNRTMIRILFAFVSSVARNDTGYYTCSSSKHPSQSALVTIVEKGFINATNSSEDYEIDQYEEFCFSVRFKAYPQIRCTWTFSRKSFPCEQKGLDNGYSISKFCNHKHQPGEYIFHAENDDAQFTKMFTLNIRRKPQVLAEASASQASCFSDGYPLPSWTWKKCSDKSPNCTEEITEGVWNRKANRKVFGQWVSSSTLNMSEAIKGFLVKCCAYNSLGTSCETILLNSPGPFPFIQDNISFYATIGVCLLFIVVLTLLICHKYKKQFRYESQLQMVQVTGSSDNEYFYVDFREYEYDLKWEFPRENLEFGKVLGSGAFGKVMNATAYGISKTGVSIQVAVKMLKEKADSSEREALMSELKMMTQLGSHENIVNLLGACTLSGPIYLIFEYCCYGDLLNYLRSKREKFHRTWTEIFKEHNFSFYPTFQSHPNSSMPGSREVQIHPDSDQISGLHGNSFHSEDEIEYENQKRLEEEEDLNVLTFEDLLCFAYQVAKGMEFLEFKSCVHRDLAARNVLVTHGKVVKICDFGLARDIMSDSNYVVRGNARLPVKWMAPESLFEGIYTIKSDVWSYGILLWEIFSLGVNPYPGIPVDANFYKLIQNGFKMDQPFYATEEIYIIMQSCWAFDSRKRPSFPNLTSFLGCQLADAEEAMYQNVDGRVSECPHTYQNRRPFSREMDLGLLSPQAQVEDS

[1] = tested on: other kinases including FMS and cKit; test: Kinase panel screening, overall selectivity; conditions: 36 different kinases, single dose of 10 µM
Description: Next, we investigated kinase panel screening of 7d and 7b over 36 different kinases at a single dose of 10 µM (Figure 5). […] High selectivity over cKit might be an opportunity to avoid myelosuppression toxicity, which was reported from a dual FLT3/cKit inhibitor[19–22]. It is a valuable result to secure such a kinase selectivity profile considering the similarities of the same type III receptor tyrosine kinase (FMS, cKit and FLT3).
3. Evaluation of IC50 and Selected Kinase Profiling
We used Reaction Biology Corp. Kinase HotSpotSM service (www.reactionbiology.com) for IC50 determination of all compounds and kinase profile. Assay protocol: In a final reaction volume of 25 μL, Peptide substrate, [[…]], 5 µM, ATP 10 µM, FLT3(h) (5-10 […]
mU) is incubated with 25 mM Tris pH 7.5, 0.02 mM EGTA, 0.66 mg/mL myelin basic protein, 10 mM Mg Acetate and [γ-33P-ATP] (specific activity approx. 500 cpm/pmol, concentration as required). The reaction is initiated by the addition of the Mg-ATP mix. After incubation for 40 minutes at room temperature, the reaction is stopped by the addition of 5 μL of a 3% phosphoric acid solution. 10 μL of the reaction is then spotted onto a P30 filtermat and washed three times for 5 minutes in 75 mM phosphoric acid and once in methanol prior to drying and […]

RIPK3 = molecular target: T2, RIPK3 (Homo sapiens, UniProt Q9Y572); test: Reaction Biology Kinase HotSpot radiometric kinase assay; conditions: read-out: GW5074 IC50, control compound, footnote a: data for GW5074
T2 construct: purchased Reaction Biology Corp. (Kinase HotSpot service)

ERK1 = molecular target: T3, ERK1 (Homo sapiens, UniProt P27361); test: as above; conditions: control compound, footnote b: data for SCH772984
T3 construct: purchased Reaction Biology Corp. (Kinase HotSpot service)
T3 sequence (P27361 whole entry): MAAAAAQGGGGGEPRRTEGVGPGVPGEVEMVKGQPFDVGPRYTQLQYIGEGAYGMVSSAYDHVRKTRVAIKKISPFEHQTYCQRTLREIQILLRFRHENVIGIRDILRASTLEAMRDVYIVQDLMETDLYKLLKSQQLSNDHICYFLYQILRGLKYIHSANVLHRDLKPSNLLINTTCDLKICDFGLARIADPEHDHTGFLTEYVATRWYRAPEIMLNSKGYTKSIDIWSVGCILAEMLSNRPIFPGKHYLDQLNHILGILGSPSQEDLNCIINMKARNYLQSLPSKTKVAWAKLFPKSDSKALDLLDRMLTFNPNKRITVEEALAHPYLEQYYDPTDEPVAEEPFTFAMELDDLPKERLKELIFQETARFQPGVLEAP

T2 sequence (Q9Y572 whole entry): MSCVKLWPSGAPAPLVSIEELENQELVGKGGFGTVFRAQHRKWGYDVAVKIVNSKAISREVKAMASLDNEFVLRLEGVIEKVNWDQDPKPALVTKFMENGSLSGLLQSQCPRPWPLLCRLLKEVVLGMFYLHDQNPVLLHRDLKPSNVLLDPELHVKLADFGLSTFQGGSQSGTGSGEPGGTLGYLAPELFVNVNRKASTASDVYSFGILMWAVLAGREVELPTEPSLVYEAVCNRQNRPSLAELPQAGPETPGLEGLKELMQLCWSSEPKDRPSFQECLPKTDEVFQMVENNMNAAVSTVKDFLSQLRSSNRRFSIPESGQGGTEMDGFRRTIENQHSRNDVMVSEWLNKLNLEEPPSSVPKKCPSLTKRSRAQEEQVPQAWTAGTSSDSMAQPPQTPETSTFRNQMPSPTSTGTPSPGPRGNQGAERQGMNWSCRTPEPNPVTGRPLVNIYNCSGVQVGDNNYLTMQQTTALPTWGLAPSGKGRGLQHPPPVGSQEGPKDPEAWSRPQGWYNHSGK

IC50 (FLT3) | Compound | inhibitory activity towards FLT3 (in words) (FLT3) | also measured
4700 nM | COc1ccc(/C=C/c2ncc3ccc(NC(=O)c4cnoc4C)cc3n2)cc1 [Compound 7j] | maintained inhibitory activity | –
790 nM | Cc1oncc1C(=O)Nc1ccc2cnc(-c3ccc4[nH]ncc4c3)nc2c1 [Compound 7m] | maintained inhibitory activity | –
3590 nM | Cc1oncc1C(=O)Nc1ccc2cnc(-c3cc(OC4CCN(C)CC4)cc(C(F)(F)F)c3)nc2c1 [Compound 7n] | maintained the activity; also recorded: maintained inhibitory activity | –

Further lines, the molecule ahead of its results:

Compound | IC50 (FLT3) | inhibitory activity towards FLT3 (in words) (FLT3) | also measured
Cc1oncc1C(=O)Nc1ccc2cnc(-c3cc(N4CCOCC4)cc(C(F)(F)F)c3)nc2c1 [Compound 7b] | 3980 nM | maintained the activity; also recorded: maintained inhibitory activity | activity on other kinases in panel (in words) [1]: almost no activity
Cc1cn(-c2cc(-c3ncc4ccc(NC(=O)c5cnoc5C)cc4n3)cc(C(F)(F)F)c2)cn1 [Compound 7c] | 1580 nM | maintained the activity; also recorded: maintained inhibitory activity | –
CCN1CCN(Cc2cc(-c3ncc4ccc(NC(=O)c5cnoc5C)cc4n3)cc(C(F)(F)F)c2)CC1 [Compound 7e] | – | maintained the activity; also recorded: maintained inhibitory activity | decrease of activity towards FLT3 relative to 7d (FLT3; compared with 7d): about 10 fold
Cc1oncc1C(=O)Nc1ccc2cnc(-c3cnn(-c4ccccc4)c3C(F)(F)F)nc2c1 [Compound 7h] | – | loss of activity | –
Cc1oncc1C(=O)Nc1ccc2cnc(-c3cc(C(C)(C)C)on3)nc2c1 [Compound 7l] | – | did not show inhibitory activity towards FLT3 or were very weak | –
CC(=O)N1CCC(c2ncc3ccc(NC(=O)c4cnoc4C)cc3n2)CC1 [Compound 7o] | – | did not show inhibitory activity towards FLT3 or were very weak | –
Cc1oncc1C(=O)Nc1ccc2cnc(-c3ccncc3)nc2c1 [Compound 7p] | – | did not show inhibitory activity towards FLT3 or were very weak | –
Cc1oncc1C(=O)Nc1ccc2cnc(-c3ccccn3)nc2c1 [Compound 7q] | – | did not show inhibitory activity towards FLT3 or were very weak | –
O=C1Nc2ccc(I)cc2/C1=C/c1cc(Br)c(O)c(Br)c1 [GW5074, reference compound] | – | – | IC50 (RIPK3): 1650 nM
O=C(Nc1ccc2[nH]nc(-c3ccncc3)c2c1)[C@@H]1CCN(CC(=O)N2CCN(c3ccc(-c4ncccn4)cc3)CC2)C1 [SCH772984, reference compound] | – | – | IC50 (ERK1): 4.47 nM
